This note sets out measurements from PubChem BioAssay AID330 (DTP/NCI, 2004).

The assay relates to P388 leukemia ip, CD2F1 mice, survival T/C. Put plainly: NCI In Vivo Anticancer Drug Screen. Data for tumor model P388 Leukemia (intraperitoneal) in CD2F1 (CDF1) mice. To be noted: endpoint: median survival time, higher = longer survival. Put shortly:
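Mice carrying the transplanted tumor received test compound or vehicle. Survival was recorded in each group, and the value is the treated-group measurement divided by that of the vehicle-treated control group.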

The mark [1] stands for this setting: dose: 50.0 mg/kg/injection, schedule: Q01DX005 (ip), vehicle: Klucel (hydroxypropylcellulose) (HPC).
Setting [2] is: dose: 100.0 mg/kg/injection, schedule: Q01DX005 (ip), vehicle: Klucel (hydroxypropylcellulose) (HPC).
Where [3] appears, read: dose: 200.0 mg/kg/injection, schedule: Q01DX005 (ip), vehicle: Klucel (hydroxypropylcellulose) (HPC).
Where [4] appears, read: dose: 50.0 mg/kg/injection, schedule: Q01DX009 (ip), vehicle: saline.
Where [5] appears, read: dose: 100.0 mg/kg/injection, schedule: Q01DX009 (ip), vehicle: saline.
Setting [6] is: dose: 200.0 mg/kg/injection, schedule: Q01DX009 (ip), vehicle: saline.
Where [7] appears, read: dose: 60.0 mg/kg/injection, schedule: Q01DX005 (ip), vehicle: saline with Tween-80.
The mark [8] stands for this setting: dose: 120.0 mg/kg/injection, schedule: Q01DX005 (ip), vehicle: saline with Tween-80.
Where [9] appears, read: dose: 240.0 mg/kg/injection, schedule: Q01DX005 (ip), vehicle: saline with Tween-80.
Where [10] appears, read: dose: 12.5 mg/kg/injection, schedule: Q01DX009 (ip), vehicle: other.

Several values for one entry are separate records, joined by “and”; a condition that tells them apart may be missing. Identical values can stand only once. Toxic doses and inconclusive results are not listed.

Consider `COP(=O)(OC)C1c2ccccc2-c2cccc(C(=O)O)c21` (centres undefined), for which the T/C under setting [1] is 105 % of control, the T/C under setting [2] was 106 % of control and the T/C under setting [3] is 110 % of control.

On to `Clc1ccc(-c2nnc(-c3cccc(Cl)n3)o2)c(Cl)c1`, for which the T/C by setting is: (dose: 43.8 mg/kg/injection, schedule: Q01DX005 (ip), vehicle: saline with Tween-80) 99 % of control; (dose: 87.5 mg/kg/injection, schedule: Q01DX005 (ip), vehicle: saline with Tween-80) 87 % of control.

Consider `CC1(C)NC(=O)c2c(-c3ccccc3)c(-c3ccccc3)n(-c3ccccc3)c2N1`, for which the T/C is 96 % of control (dose: 50.0 mg/kg/injection, schedule: Q01DX009 (ip), vehicle: suspension in saline); 98 % of control (dose: 100.0 mg/kg/injection, schedule: Q01DX009 (ip), vehicle: suspension in saline); 101 % of control (dose: 200.0 mg/kg/injection, schedule: Q01DX009 (ip), vehicle: suspension in saline).

As for `CCCCc1cc2ccccc2c(OCCN(C)C)n1`, the T/C was 97 % of control (dose: 50.0 mg/kg/injection, schedule: Q01DX005 (ip), vehicle: saline); 115 % of control (dose: 100.0 mg/kg/injection, schedule: Q01DX005 (ip), vehicle: saline); 111 % of control (dose: 200.0 mg/kg/injection, schedule: Q01DX005 (ip), vehicle: saline).

For `CCOC(=O)C(Cc1c[nH]c2ccccc12)NCCNc1ccccc1` (centres undefined), the T/C reads like this: under setting [4], 91 % of control; under setting [5], 91 % of control; under setting [6], 99 % of control.

On to `COc1cc(/C=N/NC(N)=O)cc(OC)c1O`, for which the T/C was 105 % of control (dose: 50.0 mg/kg/injection, schedule: Q01DX009 (ip), vehicle: Klucel (hydroxypropylcellulose) (HPC)); 99 % of control (dose: 100.0 mg/kg/injection, schedule: Q01DX009 (ip), vehicle: Klucel (hydroxypropylcellulose) (HPC)); 98 % of control (dose: 200.0 mg/kg/injection, schedule: Q01DX009 (ip), vehicle: Klucel (hydroxypropylcellulose) (HPC)).

On to `COc1ccc(Oc2c(OC)cc(NCc3ccc(CN)cc3)c3ncccc23)cc1`, for which the T/C by setting is: (dose: 12.5 mg/kg/injection, schedule: Q01DX009 (ip), vehicle: saline with Tween-80) 110 % of control; (dose: 25.0 mg/kg/injection, schedule: Q01DX009 (ip), vehicle: saline with Tween-80) 109 % of control; (dose: 50.0 mg/kg/injection, schedule: Q01DX009 (ip), vehicle: saline with Tween-80) 109 % of control.

As to `O=C(Nc1ccc(N=C(NC2CCCCC2)c2ccccc2)cc1)c1ccc(C(=O)Nc2ccc(N=C(NC3CCCCC3)c3ccccc3)cc2)cc1`, the T/C (dose: 12.5 mg/kg/injection, schedule: Q01DX005 (ip), vehicle: Klucel (hydroxypropylcellulose) (HPC)) is 104 % of control; the T/C (dose: 25.0 mg/kg/injection, schedule: Q01DX005 (ip), vehicle: Klucel (hydroxypropylcellulose) (HPC)) is 103 % of control; the T/C under setting [1] was 104 % of control and 111 % of control; the T/C under setting [2] is 91 % of control; the T/C under setting [3] is 106 % of control.

As for `Cc1ccc(S(=O)(=O)N/N=C\c2c(-c3ccc(Cl)cc3)nc3sccn23)cc1`, the T/C (dose: 100.0 mg/kg/injection, schedule: Q01DX001 (ip), vehicle: Klucel (hydroxypropylcellulose) (HPC)) was 93 % of control and the T/C (dose: 200.0 mg/kg/injection, schedule: Q01DX001 (ip), vehicle: Klucel (hydroxypropylcellulose) (HPC)) is 94 % of control.

In the case of `S1SSSSSSS1`, the T/C is 103 % of control (dose: 8.0 mg/kg/injection, schedule: Q01DX005 (ip), vehicle: Klucel (hydroxypropylcellulose) (HPC)); 106 % of control (dose: 16.0 mg/kg/injection, schedule: Q01DX005 (ip), vehicle: Klucel (hydroxypropylcellulose) (HPC)); 104 % of control (dose: 32.0 mg/kg/injection, schedule: Q01DX005 (ip), vehicle: Klucel (hydroxypropylcellulose) (HPC)); 100 % of control (dose: 64.0 mg/kg/injection, schedule: Q01DX005 (ip), vehicle: Klucel (hydroxypropylcellulose) (HPC)).

In the case of `COc1ccc2oc3cc(Cl)ccc3c(=O)c2c1`, the T/C by setting is: under setting [7], 118 % of control; under setting [8], 101 % of control; under setting [9], 100 % of control.

Regarding `CCCCCCC(=O)/C=C/c1ccccc1O`, the T/C was 108 % of control under setting [4], 99 % of control under setting [5] and 112 % of control under setting [6].

Regarding `COc1ccc(-c2nnc(N)o2)cc1OC`, the T/C under setting [7] was 107 % of control, the T/C under setting [8] was 98 % of control and the T/C under setting [9] is 103 % of control.

In the case of `O=C(O)/C=N/NS(=O)(=O)c1ccc(Cl)cc1`, the T/C was 101 % of control (dose: 6.25 mg/kg/injection, schedule: Q01DX009 (ip), vehicle: other); 122 % of control under setting [10]; 159 % of control (dose: 50.0 mg/kg/injection, schedule: Q01DX009 (ip), vehicle: other); 99 % of control (dose: 100.0 mg/kg/injection, schedule: Q01DX009 (ip), vehicle: other).

With `CCCNNC(N)=S`, the T/C reads like this: under setting [10], 105 % of control; (dose: 25.0 mg/kg/injection, schedule: Q01DX009 (ip), vehicle: other) 105 % of control.

`c1ccc(C[N+]23CCC(CC2)C3c2ccccc2)cc1` (centres undefined): the T/C is 103 % of control (dose: 3.75 mg/kg/injection, schedule: Q01DX005 (ip), vehicle: saline); 103 % of control (dose: 7.5 mg/kg/injection, schedule: Q01DX005 (ip), vehicle: saline); 104 % of control (dose: 15.0 mg/kg/injection, schedule: Q01DX005 (ip), vehicle: saline).

As to `Nc1cc(N)c([N+](=O)[O-])cc1[N+](=O)[O-]`, the T/C (dose: 100.0 mg/kg/injection, schedule: Q04DX003 (ip), vehicle: saline with Tween-80) was 91 % of control; the T/C (dose: 200.0 mg/kg/injection, schedule: Q04DX003 (ip), vehicle: saline with Tween-80) is 100 % of control; the T/C (dose: 400.0 mg/kg/injection, schedule: Q04DX003 (ip), vehicle: saline with Tween-80) is 87 % of control.

In the case of `C=C1C(=O)OC2CCC3OC(C)(C)OC3C12` (centres undefined), the T/C (dose: 12.5 mg/kg/injection, schedule: Q01DX009 (ip), vehicle: DMSO) was 95 % of control; the T/C (dose: 25.0 mg/kg/injection, schedule: Q01DX009 (ip), vehicle: DMSO) was 122 % of control; the T/C (dose: 50.0 mg/kg/injection, schedule: Q01DX009 (ip), vehicle: DMSO) is 101 % of control; the T/C (dose: 100.0 mg/kg/injection, schedule: Q01DX009 (ip), vehicle: DMSO) was 110 % of control; the T/C (dose: 200.0 mg/kg/injection, schedule: Q01DX009 (ip), vehicle: DMSO) is 113 % of control.

With `CCOC(=O)C1C(C(=O)c2ccccc2)C12C(=O)N(C)c1ccccc12` (centres undefined), the T/C by setting is: (dose: 12.5 mg/kg/injection, schedule: Q04DX002 (ip), vehicle: saline with Tween-80) 103 % of control; (dose: 25.0 mg/kg/injection, schedule: Q04DX002 (ip), vehicle: saline with Tween-80) 107 % of control; (dose: 50.0 mg/kg/injection, schedule: Q04DX002 (ip), vehicle: saline with Tween-80) 103 % of control.

For the compound `[Cl][Sn]([c]1ccccc1)([c]1ccccc1)[c]1ccccc1`, the T/C (dose: 2.5 mg/kg/injection, schedule: Q01DX009 (ip), vehicle: saline) is 100 % of control and the T/C (dose: 5.0 mg/kg/injection, schedule: Q01DX009 (ip), vehicle: saline) is 115 % of control.

`CC(C)(CC#N)c1cc(CC(C)(C)c2cc(CC(C)(C)c3cc(CC(C)(C)C4(C)OCCO4)no3)no2)no1`: the T/C is, setting by setting: (dose: 30.0 mg/kg/injection, schedule: Q01DX005 (ip), vehicle: saline with Tween-80) 87 % of control; under setting [7], 90 % of control and 91 % of control; under setting [8], 86 % of control; under setting [9], 87 % of control.

As to `CCCCCCCCCCC[N+]1([O-])CCOCC1`, the T/C is, setting by setting: (dose: 12.5 mg/kg/injection, schedule: Q01DX009 (ip), vehicle: saline) 101 % of control; (dose: 25.0 mg/kg/injection, schedule: Q01DX009 (ip), vehicle: saline) 99 % of control; under setting [4], 99 % of control and 89 % of control.
